Test results taken from patent publication US12286401B2, “Small molecules that sensitize HIV-1 infected cells to antibody dependent cellular cytotoxicity” (THE TRUSTEES OF THE UNIVERSITY OF PENNSYLVANIA, priority 2018, dated 2025).
Values joined by “and” are separate entries in the source; they are usually repeats but may differ in a detail not shown here. Identical values can stand only once. “Also recorded” adds a separate entry of the source.

How the values were obtained:
[1] = tested on: HIV-1JR-FL EnvΔCT expressed at the surface of HOS cells; assay: Cell-based ELISA (CBE), 17b readout; details: for Fold over BNM-III-170 - 17b binding (±0.05): MCG analogs 50 μM, BNM-III-170 5 μM, 2G12 and DMSO normalized; for 17b binding in the CBE assay (screening hit and enantiomers): high-throughput screen follow-up, sCD4 as control, result in words
Experimental: Detection of trimeric HIV-1 Env at the surface of HOS cells was performed by cell-based ELISA, as described in Desormeaux, “The highly conserved layer-3 component of the HIV-1 gp120 inner domain is critical for CD4-required conformational transitions,” J. Virol. 87:2549-2562; Alsahafi, “Effects of the I559P gp41 change on the conformation and function of the human immunodeficiency virus (HIV-1) membrane envelope glycoprotein trimer,” 2015, PLoS One 10:e0122111; and Veillette, “Conformational evaluation of HIV-1 trimeric envelope glycoproteins using a cell-based ELISA assay,” 2014, J. Vis. Exp., 91:51995. To enhance cell-surface expression of HIV-1 EnvRF a stop codon was introduced to replace the codon for Gly 711, truncating the cytoplasmic tail (ACT). Briefly, HOS cells were seeded in T-75 flasks (3×10^6 cells per flask) and transfected the next day with 22.5 μg of Env-expressing plasmids (wild-type and mutants S375W, S375T, H66A, A582T/L587A, etc) using the standard polyethylenimine (PEI, Polyscience Inc, PA, USA) transfection method. Twenty-four hours after transfection, cells were plated in 384-wells plates (2×10^4 cells per well). One day later, cells were washed twice with blocking buffer (10 mg/mL non-fat dry milk, 1.8 mM CaCl2), 1 mM MgCl2, 25 mM Tris, pH 7.5 and 140 mM NaCl) and then incubated for 30 minutes at room temperature with different concentrations of MCG analogs or equivalent volume of vehicle (DMSO). Cells were then incubated for an additional 1 h at room temperature with anti-HIV-1 Env monoclonal antibodies recognizing CD4-induced gp120 epitopes (17b, A32), CD4-binding site gp120 epitopes (VRC03, VRC01, F105, and b12), gp120 V3 glycans (19b, PGT126, PGT122, and 10.1074), gp120 outer domain (2G12), and gp120-gp41 interface (PGT151 and VRC34) epitopes. All ligands were diluted in blocking buffer. A horseradish peroxidase-conjugated antibody specific for the Fc region of human or mouse IgG (Pierce) was then incubated with the samples for 45 minutes at room temperature. For all conditions, cells were washed 5 times with blocking buffer and 5 times with washing buffer (1.8 mM CaCl2), 1 mM MgCl2, 25 mM Tris, pH 7.5 and 140 mM NaCl). HRP enzyme activity was determined after the addition of 20 μl per well of a 1:1 mix of Western Lightning oxidizing and luminol reagents (Perkin Elmer Life Sciences). Light emission was measured with an LB 941 TriStar luminometer (Berthold Technologies) and analysis with Graph Pad software.
The data of Table 2 is given as the fold over BNM-III-170 (5 μM) of Cell-Based ELISA with MCG Analogs (50 μM)—17b readout, 2G12 and DMSO normalized.
To identify molecules able to expose vulnerable Env epitopes, a cell-based ELISA (CBE) assay was adapted, capable of measuring conformational changes of membrane-bound trimeric Env as described in Veillette, 2014, J. Vis. Exp. doi:10.3791/51995:51995; Haim, 2011, PLoS Pathog 7:e1002101, into a high-throughput screening (HTS) platform (FIG. 10A). Briefly, the cytoplasmic-tail deleted HIV-1JR-FL Tier-2/3 Env was expressed on the surface of HOS cells in a 384-well-plate format. The cytoplasmic tail of Env was deleted to enhance Env expression at the cell surface and therefore enhance the sensitivity of the CBE assay. See, Veilette and Haim, 2009, PLoS Pathog 5:e100036. Small molecules or, as a positive control, soluble (sCD4) were added to expose the HIV-1JR-FL EnvΔCT epitope that can be recognized by the CD4i antibody 17b. See, Wyatt, 1995, J. Virol. 69:5723-5733; Rizzuto, 1998, Science 280:1949-1953.
17b binding was detected by a horseradish peroxidase-conjugated (HRP) second antibody, and HRP enzyme activity was measured by Western Lightning oxidizing and luminal reagents. 17b binding in the presence of sCD4 was set as the control (FIG. 10B, blue dots), small molecules that enhanced 17b binding above 25% of the one induced by sCD4 were retested in quadruplicate and only one molecule (UM0059920) was deemed a true positive (FIG. 10B, red dots). […]

[2] = tested on: CH58TF infected primary CD4+ T-cells; assay: HIV+ patient sera/plasma recognition of CH58TF infected primary CD4+ T-cells (flow cytometry cell-surface staining); assay type: cell-based, HIV-1; details: Human immunodeficiency virus 1, T-cell, read-out: Fold Over DMSO (patient sera, n = 3)
Experimental: Cell-surface staining of primary CD4+ T cells from healthy HIV uninfected individuals or CEM-NKr cells is performed, as described in Prevost, “Influence of the Envelope gp120 Phe 43 Cavity on HIV-1 Sensitivity to Antibody-Dependent Cell-Mediated Cytotoxicity Responses,” 2017, J. Virol 91; Richard, “CD4 mimetics sensitize HIV-1-infected cells to ADCC,” 2015, Proc. Natl. Acad. Sci. USA, 112:E2687-2694; Richard, “Small CD4 Mimetics Prevent HIV-1 Uninfected Bystander CD4+ T Cell Killing Mediated by Antibody-dependent Cell-mediated Cytotoxicity,” 2016, EBioMedicine 3:122-134; Veillette, “The HIV-1 gp120 CD4-Bound Conformation Is Preferentially Targeted by Antibody-Dependent Cellular Cytotoxicity-Mediating Antibodies in Sera from HIV-1-Infected Individuals,” 2015, J. Virol., 89:545-551; Veillette, “Interaction with cellular CD4 exposes HIV-1 envelope epitopes targeted by antibody-dependent cell-mediated cytotoxicity,” 2014, J. Virol., 88:2633-2644; Richard, “Uninfected Bystander Cells Impact the Measurement of HIV-Specific Antibody-Dependent Cellular Cytotoxicity Responses,” 2018, MBio. 9(2): e00358-18; Richard, “BST-2 Expression Modulates Small CD4-Mimetic Sensitization of HIV-1-Infected Cells to Antibody-Dependent Cellular Cytotoxicity,” 2017, J. Virol. 91(11):e00219-17. Binding of HIV-1 infected cells by HIV+ sera (1:1000 dilution) or anti-Env Abs (such as 17b) is performed […] in vitro infection at 37° C. in presence of different concentrations of the MCG analogs or with equivalent volume of vehicle (DMSO). Cells infected with HIV-1 primary isolates are stained intracellularly for HIV-1 p24 using the Cytofix/Cytoperm Fixation/Permeabilization Kit (BD Biosciences, Mississauga, ON, Canada) and then fluorescent anti-p24 mAb (PE-anti-p24, clone KC57; Beckman Coulter/Immunotech, Hialeah, FL) (1:100 final concentration). The percentage of infected cells (p24^+ or GFP+ cells) is determined by gating the living cell population based on the viability dye staining. Samples are analyzed on an LSRII cytometer (BD Biosciences, Mississauga, ON, Canada) and data analysis is performed using FlowJo vX0.7 (Tree Star, Ashland, OR, USA).
HIV+ Patient Sera (n=3) Recognition of CH58TF Infected Primary CD4+ T-Cells
Staining with patient sera and 50 μM of compounds given as a fold change over DMSO (vehicle).
Briefly, Primary CD4 T cells isolated from PBMC were infected with HIV-1CH58TF for 48 hours. For cell surface staining, 5 μg/ml 17b (FIG. 15A) or 1:1000 diluted HIV+ plasma (n=15) (FIG. 15B) were used in the presence of the different MCG analogs (50 μM), (+)-BNM-III-170 or with an equivalent volume of vehicle (DMSO). An Alexa Fluor 647-conjugated anti-human IgG secondary Ab was then used for fluorescent labeling. For ADCC (FIG. 15C), infected cells were used as target cells in a FACS-based ADCC assay that measures the killing of infected (p24+ cells). See, Madani, 2016, J. Virol., 90:5031-5046. The assay determines susceptibility to ADCC mediated by a 1/1,000 dilution of plasma from 15 HIV-1-infected individuals in the presence of the different MCG analogs (50 μM), (+)-BNM-III-170 (50 μM) or with an equivalent volume of vehicle (DMSO). Correlation between cell-surface staining with HIV+ plasma and ADCC was calculated using the Spearman rank correlation (FIG. 15D).

Compound	Fold over BNM-III-170 - 17b binding (±0.05) [1]	17b binding in the CBE assay (screening hit and enantiomers) [1]	fold induction at 50 µM [2]
CCCNC(=O)N1C[C@H](N)C[C@H](C(=O)Nc2ccc(Cl)c(F)c2)C1 [(3R,5S)-MCG-IV-226]	0.11 fold		
NCCOC(=O)N1C[C@H](N)C[C@H](C(=O)Nc2ccc(Cl)c(F)c2)C1 [(3R,5S)-MCG-IV-272]	0.07 fold		
NCCNC(=O)N1C[C@H](N)C[C@H](C(=O)Nc2ccc(Cl)c(F)c2)C1 [(3R,5S)-MCG-IV-273]	0.06 fold		
NCCCNC(=O)N1C[C@H](N)C[C@H](C(=O)Nc2ccc(Cl)c(F)c2)C1 [(3R,5S)-MCG-IV-274]	0.06 fold		
CS(=O)(=O)N1CCC[C@@H](C(=O)Nc2ccc(Cl)cc2)C1 [(R)-MCG-II-156]	0.08 fold	not	
CS(=O)(=O)N1CCC[C@H](C(=O)Nc2ccc(Cl)cc2)C1 [(S)-MCG-II-153]	0.20 fold and 0.31 fold	enhanced 17b binding to similar levels as UM0059920; also recorded: active enantiomer	
O=C(Nc1ccc(Cl)c(F)c1)[C@H]1CCCN(S(=O)(=O)c2cccnc2)C1 [(S)-MCG-III-116-A01]	0.41 fold		2.15
O=C(Nc1ccc(Cl)c(F)c1)[C@H]1CCCN(S(=O)(=O)C2CCCCC2)C1 [(S)-MCG-III-116-A03]	0.36 fold		1.56
CS(=O)(=O)N1CCC[C@H](C(=O)Nc2ccc(C(F)(F)F)c(F)c2)C1 [(S)-MCG-IV-024-A02]	0.38 fold		
CCS(=O)(=O)N1CCC[C@H](C(=O)Nc2ccc(C(F)(F)F)c(F)c2)C1 [(S)-MCG-IV-024-B02]	0.36 fold		
CCNC(=O)N1CCC[C@H](C(=O)Nc2ccc(Cl)c(F)c2)C1 [(S)-MCG-IV-031-A02]	0.37 fold		
CN(C)C(=O)N1CCC[C@H](C(=O)Nc2ccc(Cl)c(F)c2)C1 [(S)-MCG-IV-031-A03]	0.71 fold		
CCN(C)C(=O)N1CCC[C@H](C(=O)Nc2ccc(Cl)c(F)c2)C1 [(S)-MCG-IV-031-A04]	0.54 fold		
CC(C)CNC(=O)N1CCC[C@H](C(=O)Nc2ccc(Cl)c(F)c2)C1 [(S)-MCG-IV-031-A06]	0.42 fold		
COC(=O)N1CCC[C@H](C(=O)Nc2ccc(C(F)(F)F)c(F)c2)C1 [(S)-MCG-IV-050-A01]	0.44 fold		
CCOC(=O)N1CCC[C@H](C(=O)Nc2ccc(C(F)(F)F)c(F)c2)C1 [(S)-MCG-IV-050-A02]	0.49 fold		
CNC(=N)N1CCC[C@H](C(=O)Nc2ccc(Cl)c(F)c2)C1 [(S)-MCG-IV-053-A01]	0.42 fold		
CCCNC(=N)N1CCC[C@H](C(=O)Nc2ccc(Cl)c(F)c2)C1 [(S)-MCG-IV-053-A05]	0.85 fold		
CC(C)CNC(=N)N1CCC[C@H](C(=O)Nc2ccc(Cl)c(F)c2)C1 [(S)-MCG-IV-053-A06]	0.60 fold		
CCCOC(=O)N1CCC[C@H](C(=O)Nc2ccc(Cl)c(F)c2)C1 [(S)-MCG-IV-058]	0.51 fold		
CC(C)COC(=O)N1CCC[C@H](C(=O)Nc2ccc(Cl)c(F)c2)C1 [(S)-MCG-IV-061]	0.62 fold		
CNC(=O)N1CCC[C@H](C(=O)Nc2ccc(C(F)(F)F)c(F)c2)C1 [(S)-MCG-IV-063-A01]	0.33 fold		
CCNC(=O)N1CCC[C@H](C(=O)Nc2ccc(C(F)(F)F)c(F)c2)C1 [(S)-MCG-IV-063-A02]	0.35 fold		
CN(C)C(=O)N1CCC[C@H](C(=O)Nc2ccc(C(F)(F)F)c(F)c2)C1 [(S)-MCG-IV-063-A03]	0.48 fold		
CCCNC(=O)N1CCC[C@H](C(=O)Nc2ccc(C(F)(F)F)c(F)c2)C1 [(S)-MCG-IV-063-A05]	0.45 fold		
CC(C)CNC(=O)N1CCC[C@H](C(=O)Nc2ccc(C(F)(F)F)c(F)c2)C1 [(S)-MCG-IV-063-A06]	0.36 fold		
NCCCNC(=O)N1CCC[C@H](C(=O)Nc2ccc(Cl)c(F)c2)C1 [(S)-MCG-IV-211]	0.25 fold		
NCCOC(=O)N1CCC[C@H](C(=O)Nc2ccc(Cl)c(F)c2)C1 [(S)-MCG-IV-267]	0.30 fold		
